According to US20240132431A1, “METHOD FOR ALKYLATING ACIDIC FUNCTIONAL GROUP” (Chugai Seiyaku Kabushiki Kaisha, priority 2021, published 2024):

Biological target: T1, Bcl-2 protein (Recombinant Human Bcl-2 Protein) (Homo sapiens, UniProt P10415)
T1 construct: purchased Novus NBP2-34889
Assay: Binding evaluation of mixture library compounds to Bcl-2 using AS-MS (affinity selection mass spectrometry)
Settings: for ASMS ratio (%) n = 1 / ASMS ratio (%) n = 2: ASMS Ratio(%)=(A−C)/B×100; for ASMS ratio (%) n = 1: replicate n = 1; for ASMS ratio (%) n = 2: replicate n = 2
Procedure, shortened: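 ASMS Ratio (%) was calculated as (A−C)/B×100, where A is the protein sample after SEC, B the protein-free sample without SEC and C the protein-free sample after SEC. Each compound was at […] in a 1200-member pool with 20 μM Bcl-2, incubated 1 h at 23° C.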

[1] = AS-MS on the mixture of 1200 library compounds
[2] = AS-MS, mixture of 1200 compounds, Bcl-2

T1 sequence (P10415 whole entry): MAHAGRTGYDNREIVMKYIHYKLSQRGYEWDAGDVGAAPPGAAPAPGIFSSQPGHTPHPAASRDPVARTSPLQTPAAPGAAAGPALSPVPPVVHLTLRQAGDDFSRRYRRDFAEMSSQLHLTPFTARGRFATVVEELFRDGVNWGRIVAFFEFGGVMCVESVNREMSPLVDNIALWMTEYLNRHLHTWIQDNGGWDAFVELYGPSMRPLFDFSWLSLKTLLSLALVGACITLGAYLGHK

Molecule: CCOc1cncc(-c2cc(C(=O)N3CCN(c4ccc(C(=O)N(C)CC56CC7CC(CC(C7)C5)C6)nn4)CC3)cc(C(C)(C)C)c2)c1 [B3A016-01, N-(1-Adamantylmethyl)-6-[4-[3-tert-butyl-5-(5-ethoxypyridin-3-yl)benzoyl]piperazin-1-yl]-N-methylpyridazine-3-carboxamide]
- ASMS ratio (%) n = 1 [1]: 2.8%
- ASMS ratio (%) n = 2 [1]: 0.1%

Molecule: CCOc1cccc(C#Cc2ccccc2CN2CCN(c3ccc(C(=O)N(C)CC45CC6CC(CC(C6)C4)C5)nn3)CC2)c1 [B3A095-01, N-(1-Adamantylmethyl)-6-[4-[[2-[2-(3-ethoxyphenyl)ethynyl]phenyl]methyl]piperazin-1-yl]-N-methylpyridazine-3-carboxamide]
- ASMS ratio (%) n = 1 [1]: −4.9%
- ASMS ratio (%) n = 2 [1]: −3.5%

Molecule: CCOc1cncc(-c2ccc(CN3CCN(c4ccc(C(=O)Nc5ccc(OC)cc5)cc4)CC3)c(OC)c2)c1 [B1O054-01, 4-[4-[[4-(5-Ethoxypyridin-3-yl)-2-methoxyphenyl]methyl]piperazin-1-yl]-N-(4-methoxyphenyl)benzamide]
- ASMS ratio (%) n = 1 [1]: 2.6%
- ASMS ratio (%) n = 2 [1]: 3.2%

Molecule: CCOc1cccc(-c2ccccc2CCC(=O)N2CCN(c3ccc(C(=O)NS(=O)(=O)C(C)(C)C)nn3)CC2)c1 [B2L011-01, N-tert-Butylsulfonyl-6-[4-[3-[2-(3-ethoxyphenyl)phenyl]propanoyl]piperazin-1-yl]pyridazine-3-carboxamide]
- ASMS ratio (%) (n = 1): 0.0%
- ASMS ratio (%) (n = 2): 0.0%

Molecule: CCOc1cccc(-c2ccccc2CCC(=O)N2CCN(c3ccc(C(=O)NS(C)(=O)=O)cc3)CC2)c1 [B2I033-01, 4-[4-[3-[2-(3-Ethoxyphenyl)phenyl]propanoyl]piperazin-1-yl]-N-methylsulfonylbenzamide]
- ASMS ratio (%) n = 1 (AS-MS, mixture library, Bcl-2): 0.0%
- ASMS ratio (%) n = 2 (AS-MS, mixture library, Bcl-2): 0.0%

Molecule: CCOc1cncc(-c2cc(CN3CCN(c4ccc(C(=O)NS(=O)(=O)c5ccc(NCCSc6ccccc6)c([N+](=O)[O-])c5)nn4)CC3)cc(C(F)(F)F)c2)c1 [B2Q088-01, 6-[4-[[3-(5-Ethoxypyridin-3-yl)-5-(trifluoromethyl)phenyl]methyl]piperazin-1-yl]-N-[3-nitro-4-(2-phenylsulfanylethylamino)phenyl]sulfonylpyridazine-3-carboxamide]
- ASMS ratio (%) n = 1 (AS-MS, mixture library, Bcl-2): 13.8%
- ASMS ratio (%) n = 2 (AS-MS, mixture library, Bcl-2): 9.1%

Molecule: CCOc1cccc(-c2ccc(CN3CCN(c4ccc(C(=O)NS(=O)(=O)c5ccc(NCCSc6ccccc6)c([N+](=O)[O-])c5)cc4)CC3)cc2F)c1 [B2Q051-01, 4-[4-[[4-(3-Ethoxyphenyl)-3-fluorophenyl]methyl]piperazin-1-yl]-N-[3-nitro-4-(2-phenylsulfanylethylamino)phenyl]sulfonylbenzamide]
- ASMS ratio (%) n = 1 (AS-MS, mixture library, Bcl-2): 22.6%
- ASMS ratio (%) n = 2 (AS-MS, mixture library, Bcl-2): 2.1%

Molecule: CCOc1cccc(-c2cc(OC)c(CN3CCN(c4ccc(C(=O)NS(=O)(=O)C(C)(C)C)nn4)CC3)c(OC)c2)c1 [B2L085-01, N-tert-Butylsulfonyl-6-[4-[[4-(3-ethoxyphenyl)-2,6-dimethoxyphenyl]methyl]piperazin-1-yl]pyridazine-3-carboxamide]
- ASMS ratio (%) (n = 1): 0.0%
- ASMS ratio (%) (n = 2): 0.0%

Molecule: CCOc1cncc(-c2ccc(C(=O)N3CCN(c4ccc(C(=O)NS(C)(=O)=O)cc4)CC3)cc2F)c1 [B2I028-01, 4-[4-[4-(5-Ethoxypyridin-3-yl)-3-fluorobenzoyl]piperazin-1-yl]-N-methylsulfonylbenzamide]
- ASMS ratio (%) n = 1 (AS-MS, mixture library, Bcl-2): 0.0%
- ASMS ratio (%) n = 2 (AS-MS, mixture library, Bcl-2): 0.0%

Molecule: CCOc1cncc(-c2cc(CN3CCN(c4ccc(C(=O)NS(=O)(=O)c5ccc(NCCSc6ccccc6)c([N+](=O)[O-])c5)nn4)CC3)cc(OCC)c2)c1 [B2Q082-01, 6-[4-[[3-Ethoxy-5-(5-ethoxypyridin-3-yl)phenyl]methyl]piperazin-1-yl]-N-[3-nitro-4-(2-phenylsulfanylethylamino)phenyl]sulfonylpyridazine-3-carboxamide]
- ASMS ratio (%) n = 1 (AS-MS, mixture library, Bcl-2): 21.3%
- ASMS ratio (%) n = 2 (AS-MS, mixture library, Bcl-2): 8.5%

Molecule: CCOc1cncc(C#Cc2cc(C(=O)N3CCN(c4ccc(C(=O)NS(=O)(=O)CC56CC7CC(CC(C7)C5)C6)cc4)CC3)cc(C(F)(F)F)c2)c1 [B2A042-01, N-(1-Adamantylmethylsulfonyl)-4-[4-[3-[2-(5-ethoxypyridin-3-yl)ethynyl]-5-(trifluoromethyl)benzoyl]piperazin-1-yl]benzamide]
- ASMS ratio (%) n = 1 (AS-MS, mixture library, Bcl-2): 10.1%
- ASMS ratio (%) n = 2 (AS-MS, mixture library, Bcl-2): −0.9%

Molecule: CCOc1cccc(-c2ccc(C(=O)N3CCN(c4ccc(C(=O)Nc5ccc(OC)cc5)nn4)CC3)cc2C)c1 [B1O003-01, 6-[4-[4-(3-Ethoxyphenyl)-3-methylbenzoyl]piperazin-1-yl]-N-(4-methoxyphenyl)pyridazine-3-carboxamide]
- ASMS ratio (%) n = 1 [1]: 0.0%
- ASMS ratio (%) n = 2 [1]: 0.0%

Molecule: CCOc1cncc(-c2ccccc2CCC(=O)N2CCN(c3ccc(C(=O)Nc4ccc(OC)cc4)cc3)CC2)c1 [B1O034-01, 4-[4-[3-[2-(5-Ethoxypyridin-3-yl)phenyl]propanoyl]piperazin-1-yl]-N-(4-methoxyphenyl)benzamide]
- ASMS ratio (%) n = 1 [1]: 0.1%
- ASMS ratio (%) n = 2 [1]: 0.2%

Molecule: CCOc1cncc(-c2cc(CN3CCN(c4ccc(C(=O)NS(=O)(=O)CCC(F)(F)F)nn4)CC3)cc(OC(F)(F)F)c2)c1 [B2N090-01, 6-[4-[[3-(5-Ethoxypyridin-3-yl)-5-(trifluoromethoxy)phenyl]methyl]piperazin-1-yl]-N-(3,3,3-trifluoropropylsulfonyl)pyridazine-3-carboxamide]
- ASMS ratio (%) (n = 1): 0.0%
- ASMS ratio (%) (n = 2): 0.0%

Molecule: CCOc1cccc(-c2ccc(CN3CCN(c4ccc(C(=O)NS(=O)(=O)CC56CC7CC(CC(C7)C5)C6)cc4)CC3)c3ccccc23)c1 [B2A065-01, N-(1-Adamantylmethylsulfonyl)-4-[4-[[4-(3-ethoxyphenyl)naphthalen-1-yl]methyl]piperazin-1-yl]benzamide]
- ASMS ratio (%) n = 1 (AS-MS, mixture library, Bcl-2): 10.5%
- ASMS ratio (%) n = 2 (AS-MS, mixture library, Bcl-2): −2.9%

Molecule: CCOc1cncc(C#Cc2cncc(C(=O)N3CCN(c4ccc(C(=O)NS(=O)(=O)CCC(F)(F)F)nn4)CC3)c2)c1 [B2N010-01, 6-[4-[5-[2-(5-Ethoxypyridin-3-yl)ethynyl]pyridine-3-carbonyl]piperazin-1-yl]-N-(3,3,3-trifluoropropylsulfonyl)pyridazine-3-carboxamide]
- ASMS ratio (%) (n = 1): 0.0%
- ASMS ratio (%) (n = 2): 0.0%

Molecule: CCOc1cccc(-c2cc(CN3CCN(c4ccc(C(=O)NS(=O)(=O)C(C)(C)C)nn4)CC3)cc(OCC)c2)c1 [B2L081-01, N-tert-Butylsulfonyl-6-[4-[[3-ethoxy-5-(3-ethoxyphenyl)phenyl]methyl]piperazin-1-yl]pyridazine-3-carboxamide]
- ASMS ratio (%) (n = 1): 0.0%
- ASMS ratio (%) (n = 2): 0.0%

Molecule: CCOc1cncc(-c2ccccc2CCC(=O)N2CCN(c3ccc(C(=O)NS(=O)(=O)CCC(F)(F)F)nn3)CC2)c1 [B2N012-01, 6-[4-[3-[2-(5-Ethoxypyridin-3-yl)phenyl]propanoyl]piperazin-1-yl]-N-(3,3,3-trifluoropropylsulfonyl)pyridazine-3-carboxamide]
- ASMS ratio (%) (n = 1): 0.0%
- ASMS ratio (%) (n = 2): 0.0%

Molecule: CCOc1cccc(-c2cc(CN3CCN(c4ccc(C(=O)Nc5ccc(OC)cc5)cc4)CC3)cc(OC(C)C)c2)c1 [B1O057-01, 4-[4-[[3-(3-Ethoxyphenyl)-5-propan-2-yloxyphenyl]methyl]piperazin-1-yl]-N-(4-methoxyphenyl)benzamide]
- ASMS ratio (%) n = 1 [1]: 4.1%
- ASMS ratio (%) n = 2 [1]: −2.2%

Molecule: CCOc1cncc(C#Cc2cc(C(=O)N3CCN(c4ccc(C(=O)NS(=O)(=O)CCC(F)(F)F)nn4)CC3)cc(C(F)(F)F)c2)c1 [B2N020-01, 6-[4-[3-[2-(5-Ethoxypyridin-3-yl)ethynyl]-5-(trifluoromethyl)benzoyl]piperazin-1-yl]-N-(3,3,3-trifluoropropylsulfonyl)pyridazine-3-carboxamide]
- ASMS ratio (%) (n = 1): 0.0%
- ASMS ratio (%) (n = 2): 0.0%

Molecule: CCOc1cccc(-c2ccc(C(=O)N3CCN(c4ccc(C(=O)NCC56CC7CC(CC(C7)C5)C6)nn4)CC3)cc2F)c1 [B1A005-01, N-(1-Adamantylmethyl)-6-[4-[4-(3-ethoxyphenyl)-3-fluorobenzoyl]piperazin-1-yl]pyridazine-3-carboxamide]
- ASMS ratio (%) n = 1 [2]: 7.0%
- ASMS ratio (%) n = 2 [2]: −10.7%

Molecule: CCOc1cccc(-c2cnn(-c3cc(C(=O)N4CCN(c5ccc(C(=O)NS(=O)(=O)CCC(F)(F)F)cc5)CC4)cc(C(F)(F)F)c3)c2)c1 [B2N043-01, 4-[4-[3-[4-(3-Ethoxyphenyl)pyrazol-1-yl]-5-(trifluoromethyl)benzoyl]piperazin-1-yl]-N-(3,3,3-trifluoropropylsulfonyl)benzamide]
- ASMS ratio (%) (n = 1): −1.4%
- ASMS ratio (%) (n = 2): 0.1%

Molecule: CCOc1cccc(-c2cnn(-c3cc(C(=O)N4CCN(c5ccc(C(=O)N(C)CC67CC8CC(CC(C8)C6)C7)cc5)CC4)cc(C(F)(F)F)c3)c2)c1 [B3A043-01, N-(1-Adamantylmethyl)-4-[4-[3-[4-(3-ethoxyphenyl)pyrazol-1-yl]-5-(trifluoromethyl)benzoyl]piperazin-1-yl]-N-methylbenzamide]
- ASMS ratio (%) n = 1 [1]: 0.5%
- ASMS ratio (%) n = 2 [1]: −0.3%

Molecule: 4-[4-[[4-(3-Ethoxyphenyl)thiophen-2-yl]methyl]piperazin-1-yl]-N-propylbenzamide [B1M048-01]
- ASMS ratio (%) n = 1 [2]: 0.9%
- ASMS ratio (%) n = 2 [2]: 0.3%

Molecule: CCOc1cccc(-c2ccc(CN3CCN(c4ccc(C(=O)NCC(F)(F)F)nn4)CC3)cc2C)c1 [B1K073-01, 6-[4-[[4-(3-Ethoxyphenyl)-3-methylphenyl]methyl]piperazin-1-yl]-N-(2,2,2-trifluoroethyl)pyridazine-3-carboxamide]
- ASMS ratio (%) n = 1 [2]: 3.1%
- ASMS ratio (%) n = 2 [2]: −1.9%
